The values that follow come from ChEMBL document CHEMBL3120108, “Direct interaction of garcinol and related polyisoprenylated benzophenones of Garcinia cambogia fruits with the transcription factor STAT-1 as a likely mechanism of their inhibitory effect on cytokine signaling pathways” (J Nat Prod, 2014).

Activity calls are given as the source filed them. No cut-off for these calls is given here.

One assay relates to INS-1E. The assay is described as follows: Inhibition of TNFalpha-induced NFkappaB activation in rat INS-1E cells assessed as reduction of NFkappaB-DNA binding activity at 25 uM preincubated for 30 mins followed by cytokine challenge measured after 60 mins by electrophoretic mobility shift assay. Type of assay: cell-based. (In general: Mobility shift assays separate free from complexed probe on a gel.)

In assay [1] the test system is MDA-MB-231. In words: Inhibition of TNFalpha-induced NFkappaB activation in human MDA-MB-231 cells assessed as reduction of NFkappaB-DNA binding activity at 50 uM preincubated for 30 mins followed by cytokine challenge measured after 60 mins by electrophoretic mobility shift assay. Type of assay: cell-based.
For assay [2], the target named is T1, Signal transducer and activator of transcription 1 (Rattus norvegicus) (UniProt Q6P6Q7).
T1 sequence (whole entry): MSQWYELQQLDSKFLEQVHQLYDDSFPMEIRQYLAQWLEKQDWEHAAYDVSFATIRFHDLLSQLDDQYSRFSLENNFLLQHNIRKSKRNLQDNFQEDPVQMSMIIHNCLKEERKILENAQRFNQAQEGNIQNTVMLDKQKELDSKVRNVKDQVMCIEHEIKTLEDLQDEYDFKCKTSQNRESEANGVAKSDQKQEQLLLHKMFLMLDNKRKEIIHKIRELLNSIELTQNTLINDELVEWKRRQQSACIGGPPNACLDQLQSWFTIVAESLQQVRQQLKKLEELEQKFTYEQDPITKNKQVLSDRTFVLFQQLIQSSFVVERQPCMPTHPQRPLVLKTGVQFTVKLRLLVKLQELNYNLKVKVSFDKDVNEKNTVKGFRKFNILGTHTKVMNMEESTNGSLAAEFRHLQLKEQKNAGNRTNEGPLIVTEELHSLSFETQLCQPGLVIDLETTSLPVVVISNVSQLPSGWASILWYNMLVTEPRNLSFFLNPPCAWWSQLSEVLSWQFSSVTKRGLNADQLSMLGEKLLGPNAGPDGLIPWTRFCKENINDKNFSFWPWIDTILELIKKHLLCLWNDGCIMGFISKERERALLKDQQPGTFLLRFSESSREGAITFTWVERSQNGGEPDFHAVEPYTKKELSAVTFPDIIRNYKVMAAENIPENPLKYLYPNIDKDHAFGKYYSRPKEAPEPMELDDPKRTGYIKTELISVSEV
The assay is described as follows: Inhibition of INFgamma-induced STAT1 activation in rat INS-1E cells assessed as reduction of STAT1-DNA binding activity at 25 uM preincubated for 30 mins followed by cytokine challenge measured after 60 mins by electrophoretic mobility shift assay. The format is cell-based.

The target of assay [3] is T2, Signal transducer and activator of transcription 1-alpha/beta (Homo sapiens) (UniProt P42224).
T2 sequence (whole entry): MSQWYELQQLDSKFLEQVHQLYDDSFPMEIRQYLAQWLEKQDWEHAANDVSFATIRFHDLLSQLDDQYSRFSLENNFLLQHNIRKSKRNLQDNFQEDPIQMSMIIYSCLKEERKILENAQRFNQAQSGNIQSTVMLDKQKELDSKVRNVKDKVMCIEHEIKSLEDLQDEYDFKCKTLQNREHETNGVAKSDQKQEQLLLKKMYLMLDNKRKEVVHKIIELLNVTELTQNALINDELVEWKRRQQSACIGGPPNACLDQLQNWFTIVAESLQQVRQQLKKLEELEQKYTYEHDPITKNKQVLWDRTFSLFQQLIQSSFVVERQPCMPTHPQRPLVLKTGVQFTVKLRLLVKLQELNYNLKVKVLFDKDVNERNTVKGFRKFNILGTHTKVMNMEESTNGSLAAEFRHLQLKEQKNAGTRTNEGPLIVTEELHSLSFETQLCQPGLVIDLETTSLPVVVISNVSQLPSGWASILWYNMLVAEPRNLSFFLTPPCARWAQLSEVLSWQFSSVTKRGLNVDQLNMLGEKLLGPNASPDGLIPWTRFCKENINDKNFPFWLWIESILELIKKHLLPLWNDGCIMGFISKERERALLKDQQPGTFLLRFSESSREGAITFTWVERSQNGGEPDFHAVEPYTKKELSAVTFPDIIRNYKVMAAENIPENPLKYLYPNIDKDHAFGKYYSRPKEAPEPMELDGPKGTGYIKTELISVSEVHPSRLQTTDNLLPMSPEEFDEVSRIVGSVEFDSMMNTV
The assay is described as follows: Inhibition of INFgamma-induced STAT1 activation in human […] cells assessed as reduction of STAT1-DNA binding activity at 50 uM preincubated for 30 mins followed by cytokine challenge measured after 60 mins by electrophoretic mobility shift assay. The format is cell-based.

For assay [4], the target named is T2, Signal transducer and activator of transcription 1-alpha/beta (Homo sapiens). In words: Inhibition of INFgamma-induced STAT1 activation in human […] cells assessed as reduction of STAT1-DNA binding activity preincubated for 30 mins followed by cytokine challenge measured after 60 mins by electrophoretic mobility shift assay. Type of assay: cell-based.

The target of assay [5] is T3, Signal transducer and activator of transcription 1-alpha/beta (Homo sapiens, UniProt P42224).
T3 sequence (P42224 whole entry): T2 sequence (whole entry)
The assay is described as follows: Binding affinity to STAT1 (unknown origin) by surface plasmon resonance assay. (SPR reads the build-up and loss of mass on a sensor chip optically.)

Assay [6] concerns MDA-MB-231. In words: Inhibition of TNFalpha-induced NFkappaB activation in human MDA-MB-231 cells assessed as reduction of NFkappaB-DNA binding activity preincubated for 30 mins followed by cytokine challenge measured after 60 mins by electrophoretic mobility shift assay. Type of assay: cell-based.
Assay [7] concerns the target T2, Signal transducer and activator of transcription 1-alpha/beta (Homo sapiens). The assay is described as follows: Inhibition of INFgamma-induced STAT1 activation in human […] cells assessed as reduction of STAT1-DNA binding activity at 25 uM preincubated for 30 mins followed by cytokine challenge measured after 60 mins by electrophoretic mobility shift assay. Type of assay: cell-based.

The target of assay [8] is T1, Signal transducer and activator of transcription 1 (Rattus norvegicus). The assay is described as follows: Inhibition of INFgamma-induced STAT1 activation in rat INS-1E cells assessed as reduction of STAT1-DNA binding activity at 10 uM preincubated for 30 mins followed by cytokine challenge measured after 60 mins by electrophoretic mobility shift assay. Type of assay: cell-based.

Assay [9] deals with T2, Signal transducer and activator of transcription 1-alpha/beta (Homo sapiens). The assay is described as follows: Inhibition of STAT1 in human […] cells assessed as suppression of INFgamma-induced SOCS-1 expression at 25 to 40 uM by Northern blotting technique. The format is cell-based.

For the compound `CC(C)=CCC/C(C)=C/C[C@@]12C[C@H](CC=C(C)C)C(C)(C)[C@@](CC=C(C)C)(C(=O)C(C(=O)c3ccc(O)c(O)c3)=C1O)C2=O`, the inhibition result (in the assay with INS-1E; with MDA-MB-231 [1]; in assay [2]) was “inactive” each time. In addition, in assay [3], the inhibition result is “Active”. Further, the inhibition entry in [4] is “Dose-dependent effect”. Besides, in assay [5], binding was characterised by a dissociation constant (Kd) of 4.67 µM.
In turn, `O=C(O[C@@H]1Cc2c(O)cc(O)cc2O[C@@H]1c1cc(O)c(O)c(O)c1)c1cc(O)c(O)c(O)c1` [EPIGALOCATECHIN GALLATE] had a Kd in assay [5] of 0.7 µM.
For the compound `C=C(C)[C@@H](CC=C(C)C)C[C@@]12C[C@@H](CC=C(C)C)C(C)(C)[C@@](CC=C(C)C)(C(=O)C(C(=O)c3ccc(O)c(O)c3)=C1O)C2=O` [GARCINOL], the inhibition entry (in the assay on INS-1E; with MDA-MB-231 [1]; in assay [2]; in [7]) was “Active” throughout. Also, the inhibition entry (in the assay with MDA-MB-231 [6]; in [4]) was “Dose-dependent effect” each time. In [5], the dissociation constant (Kd) was determined as 16.9 µM.
As for `CC(C)=CCC[C@@]1(C)[C@H](CC=C(C)C)C[C@]2(CC=C(C)C)C(=O)[C@@]1(CC=C(C)C)C(=O)C(C(=O)c1ccc(O)c(O)c1)=C2O` [GUTTIFERONE K], the inhibition entry in [8], in assay [2], in [9] and in assay [3] was “Active” throughout. The inhibition entry in [4] was “Dose-dependent effect”. For the same compound, in [5], binding was characterised by a dissociation constant (Kd) of 20.6 µM.

The Kd is a measure of binding affinity in units of concentration. A high value points to a looser complex.
